How the values were obtained:
Assay type in all cases: cell-based, human
ML-2 cells = experiment: Immunoblot analysis of target proteins
Experimental: Cells were washed in ice-cold 1×PBS twice before harvest in Cell Extraction Buffer (ThermoFisher Cat No. FNN0011) supplemented with 1× Halt Protease Inhibitor Cocktail (ThermoFisher Cat No. 78429). Whole cell extracts were collected after centrifugation at 14,000 g for 10 minutes, resolved on 4-12% Bis-Tris Novex Precast Gels (ThermoFisher Cat No. WG1403A), transferred onto a nitrocellulose membrane using the Turboblot Turbo Transfer System (Bio-Rad), and probed with the indicated primary antibodies. Bound antibodies were detected with IRDye-680 or -800 conjugated secondary antibodies using a LI-COR scanner.
Antibodies used for immunoblot: mouse anti-human GSPT-1 mAb conjugated with AL647 (clone number GSPT1-164-17G9-G6, Celgene, San Diego, CA), IL-1β (R&D Systems, Cat No. AF-201-NA), cleaved caspase 3 (Cell Signaling, Cat No. 9664S), alpha-tubulin (Cell Signaling, Cat No. 3873S), cleaved Caspase-8 (Cell Signaling, Cat No. 9748S), Caspase-1 (Cell Signaling, Cat No. 3866S), HA tag (Cell Signaling, Cat No. 3724), phosphor-eIF2a (Cell Signaling, Cat No. 9721), total eIF2a (Cell Signaling, Cat No. 9722), ATF4 (Cell Signaling, Cat No. 11815S), CHOP (Abcam, Cat No. 11419), GAPDH (Cell Signaling, Cat No. 5174), rabbit anti-mouse 800 antibody (LI-COR Biosciences), rabbit anti-mouse 680 antibody (LI-COR Biosciences), mouse anti-rabbit 680 antibody (LI-COR Biosciences), mouse anti-rabbit 800 antibody (LI-COR Biosciences)
(§1) The level of intracellular pro IL-1β and released IL-1β in eight AML cell lines and normal PBMC treated with a titration of Compound 1 over a 48 hour period was assessed. (see FIGS. 1A-1C, Table 2). Supernatant IL-1βb level was induced over 5 fold in 6 out of 8 AML cell lines and normal PBMC upon Compound 1 treatment compared to DMSO (FIGS. 1A, 1B, and 1C, Table 2).

THP-1 = experiment: Cytokine induction, electrochemiluminescence assay of culture supernatant
Experimental: (§2) For cytokine assays on AML cell lines, cells were seeded at 1 million per mL, 3 mL per well of 6-well plates and allowed set overnight. The next day, cells were treated with 3 μL 1000× working stock of compounds of interest.
(§3) Human AML cell lines, HL-60 (CCL-240), KG-1 (CCL-246), ML-2 (ACC-15), MOLM-13 (ACC-554), MV-4-11 (CRL-9591), NOMO-1 (ACC-542), TF-1 (CRL-2003), THP-1 (TIB-202), and U937 (CRL-1593) were obtained from American Type Culture Collection (ATCC; Manassas, VA) or Deutsche Sammlung von Mikroorganismen and Zellkulturen (DSMZ, Germany) cell banks. Acute myeloid leukemia cell lines were maintained in RPMI-1640 (ATCC Cat No. 30-2001) containing 20% fetal bovine serum (FBS) (Corning Cat No. 35-010-CV) and maintained in humidified incubators at 5% carbon dioxide.
(§4) IL-1α (Meso Scale Disgnostics, Cat No. K151RBD), IL-1β (Meso Scale Disgnostics, Cat No. K151QPD), IL-1RA (Meso Scale Disgnostics, Cat No. K151WTD), IL-18 (Meso Scale Disgnostics, Cat No. K151VJK), TNFa (Meso Scale Disgnostics, Cat No. K151QWD), VEGF Meso Scale Disgnostics, Cat No. K151RHD) levels were measured by (Meso Scale Disgnostics assay kits following manufacturer's instructions. Measurements were made on a MESO™ SECTOR S 600 plate reader (Meso Scale Disgnostics).
(§5) Cell proliferation (CTG) and caspase 3/7 activation (IncuCyte) were analyzed using GraphPad Prism. Electrochemiluminescence data was analyzed using MSD Discovery Workbench platform.
as §1

MOLM-13 = experiment: as above; details: MOLM-13
Experimental: as §2, §3, §4, §5, §1

TF-1 = experiment: as above
Experimental: as §2, §3, §4, §5, §1

U937 = experiment: as above
Experimental: as §2, §3, §4, §5, §1

[1] = system: eight AML cell lines and normal PBMC; experiment: IL-1 family cytokine induction across the cell panel
Experimental: as §2, §4, §1
The maturation of IL-1β can be mediated through classical caspase-1 inflammasome pathway, or a caspase-8 dependent non-canonical inflammasome signaling (Antonopoulos et al. J Biol Chem. 2015, 290(33):20167-84; Chauhan et al. Cell Rep. 2018, 25(9):2354-2368; and Schneider et al. Cell Rep. 2017, 21(13):3846-3859). To understand if classical caspase-1 mediated inflammasome pathway was activated by Compound 1, the levels of an inflammasome marker, IL-18, were tested in response to Compound 1 (FIG. 1B, Table 1), using a known inflammasome stimulant lipopolysaccharide (LPS) as positive control.

[2] = system: Normal Peripheral Blood Mononuclear Cells; experiment: Cytokine induction, electrochemiluminescence assay of culture supernatant; details: PBMC
Experimental: Normal PBMCs were purchased from AllCells (Cat No. PB006F). Primary AML BMMC in were purchased from Conversant (SKU ID: BBM1000-E1110036458110215SH) or Fidelis Research (AML55, AML57, AML73, AML74, AML76, AML79, AML80, AML81, AML84, AML95). Bone marrow from health donor was purchased from StemCell Technologies (Cat No. 70001.2).
Normal PBMCs were cultured in RPMI-1640 (ATCC Cat No. 30-2001) containing 20% fetal bovine serum (Corning Cat No. 35-010-CV). Primary AML and bone marrows were cultured in Complete Medium Cytokines 1X: StemSpam™ Serum-Free Expansion Medium (StemCell Technologies Cat No. 09650) supplemented with 50 ng/mL Stem Cell Factor (Peprotech Cat No. 300-07), 50 ng/mL recombinant Human FLT3-Ligand (Peprotech Cat No. 300-19), 20 ng/mL recombinant human-interleukin-3 (Peprotech Cat No. 200-03), […] recombinant human-interleukin-6 (Peprotech Cat No. 200-06), 1 μM StemRegenin (StemCell Technologies Cat No. 72342), penicillin/streptomycin (Invitrogen Cat No. 15140122).
as §4, §5, §1

[3] = most cell lines tested (FIG. 1B: ML-2), LPS as positive control

For O=C1CCC(N2Cc3cc(CNC(=O)C(F)(F)c4ccc(Cl)cc4)ccc3C2=O)C(=O)N1 (stereo not drawn) [Compound 1, 2-(4-chlorophenyl)-N-((2-(2,6-dioxopiperidin-3-yl)-1-oxoisoindolin-5-yl)methyl)-2,2-difluoroacetamide], the “Intracellular pro-IL-1β (immunoblot)” value (ML-2 cells; 24, 48 and 72 hours, doses conferring similar caspase3/7 activation and viability loss) was “conferred induction”, the “Cleaved caspase 3 (immunoblot)” value (ML-2 cells; 24 hours) was “concurrent induction of cleaved caspase 3” and the “GSPT1 level (immunoblot)” value (ML-2 cells; two high doses of Compound 1 at 24 hours) was “significant reduction of GSPT1”. It also gave an IL-1β induction (THP-1) of 12.13, an IL-18 induction (THP-1) of 2.46 and an IL-1β induction (MOLM-13) of 0.00. For the same molecule, the IL-1β induction (TF-1) was 1.41, the IL-18 induction (TF-1) was 0.64 and the IL-1β induction (U937) was 1.28. For the same molecule, the IL-18 induction (U937) was 0.41, the “Supernatant IL-1β level induction compared to DMSO” value ([1]; in 6 out of 8 AML cell lines and normal PBMC, titration of Compound 1 over a 48 hour period) was “over 5 fold” and the “IL-1α, IL-1β and IL-1RA induction” value [1, 3] was “induced IL-1α, IL-1β and IL-1RA post-apoptosis”. For the same molecule, the “IL-18 levels (inflammasome marker)” value [1, 3] was “without significantly increased the levels of IL-18”, the IL-1β induction [2] was 1.88 and the IL-18 induction [2] was 0.90.

— patent US12090147B2, “Combination therapy with 2-(4-chlorophenyl)-N-((2-(2,6-dioxopiperidin-3-yl)-1-oxoisoindolin-5-yl)methyl)-2,2-difluoroacetamide” (Celgene Corporation, priority 2019, dated 2024)
